Experimental data from patent publication US10266513B2 (Pfizer Inc., priority 2012, dated 2019).
pIC50: −log10 of the molar value.

How the values were obtained:
[1] = target: human full-length BTK Kinase (Homo sapiens (Human), UniProt Q06187); test: Human BTK LanthaScreen Assay (TR-FRET); format: biochemical; details: 50 μM ATP, FAM-Srctide peptide substrate, read-out: BTK Inhibition IC50
Excerpt: Human BTK LanthaScreen Assay

human EGFR kinase domain = human EGFR kinase domain (Homo sapiens (Human), UniProt P00533); test: Human EGFR LanthaScreen Selectivity Assay (TR-FRET); format: biochemical; details: 20 μM ATP
human EGFR kinase domain, sequence (P00533 712-979): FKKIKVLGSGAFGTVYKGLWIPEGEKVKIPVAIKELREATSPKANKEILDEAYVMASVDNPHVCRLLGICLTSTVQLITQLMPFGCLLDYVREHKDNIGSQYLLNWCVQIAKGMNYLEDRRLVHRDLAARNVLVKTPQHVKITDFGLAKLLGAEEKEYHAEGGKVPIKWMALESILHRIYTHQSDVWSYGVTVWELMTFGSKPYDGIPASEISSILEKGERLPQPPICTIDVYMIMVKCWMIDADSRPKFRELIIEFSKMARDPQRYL
Protocol: The kinase reaction mixtures were incubated at room temperature for 60 minutes before stopping the kinase activity by the addition of 15 mM EDTA. The extent of peptide phosphorylation by EGFR was detected using a Terbium-conjugated anti-phospho-Tyrosine antibody (Tb-PT66 antibody, invitrogen # PV3557).

Human B cells = test: Human Primary B Cell Proliferation Assay (3H-thymidine incorporation, anti-human IgM stimulated); format: cell-based; details: B-cell, purified human B cells, 50 μg/mL anti-human IgM F(ab')2, 72 hours
Protocol: Human Primary B Cell Proliferation Assay
Human B cells were purified from buffy coats using the human B cell RosetteSep kit per manufacturer's instructions. Purified cells were resuspended in RPMI-10% HIFCS, 2 mM L-glutamine, 100 U/mL penicillin, 100 μg/ml streptomycin, incubated with compounds for 1 hour at 37° C. and then stimulated with 50 μg/mL anti-human IgM F(ab′)2 for 72 hours. ^3H-thymidine was included in the culture media for the final 8-16 hours. Cells were harvested and ^3H-thymidine incorporation was measured.
Human B cell Proliferation Assay

human whole blood = test: Human Whole Blood Histamine Assay (anti-IgE induced histamine release); format: cell-based; details: Homo sapiens, heparinized human whole blood, anti-human-IgE 2 μg/ml, histamine release by ELISA; read-out: HWB IC50
Protocol: Human Whole Blood Histamine Assay
Heparinized human whole blood (200 μl) was plated in 96-well V-bottom assay plates (VWR). Compounds diluted in 100% DMSO (1 μl) were added and incubated at 37° C. for 120 minutes. Anti-human-IgE antibody (KPL) was added to a final concentration of 2 μg/ml and assay plates incubated for 30 minutes at 37° C. Plates were spun at 2000 rpm for 8 minutes and the analyzed for histamine release by ELISA kits (Beckman Coulter).
Inhibition curves and IC50 values are determined using Excel-fit.

human full-length BTK Kinase, sequence (Q06187 whole entry): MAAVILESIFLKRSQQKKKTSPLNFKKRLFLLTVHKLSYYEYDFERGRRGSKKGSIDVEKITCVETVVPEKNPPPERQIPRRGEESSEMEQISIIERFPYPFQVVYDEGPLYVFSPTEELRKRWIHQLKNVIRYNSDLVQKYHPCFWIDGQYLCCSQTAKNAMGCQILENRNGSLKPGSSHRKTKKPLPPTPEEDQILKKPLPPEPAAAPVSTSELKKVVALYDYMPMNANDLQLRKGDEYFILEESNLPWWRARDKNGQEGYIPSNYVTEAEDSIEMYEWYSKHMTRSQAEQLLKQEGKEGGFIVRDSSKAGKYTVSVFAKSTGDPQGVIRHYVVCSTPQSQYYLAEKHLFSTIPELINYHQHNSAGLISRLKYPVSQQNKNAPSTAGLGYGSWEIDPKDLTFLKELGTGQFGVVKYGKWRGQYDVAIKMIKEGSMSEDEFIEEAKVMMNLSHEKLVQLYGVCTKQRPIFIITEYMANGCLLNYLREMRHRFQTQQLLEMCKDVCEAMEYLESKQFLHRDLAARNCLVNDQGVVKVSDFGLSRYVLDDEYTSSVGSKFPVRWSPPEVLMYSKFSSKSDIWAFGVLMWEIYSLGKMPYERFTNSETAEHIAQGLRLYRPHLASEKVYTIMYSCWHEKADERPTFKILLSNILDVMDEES

Row | Compound | pIC50 [1] | other results
1 | NC(=O)c1c(-c2ccc(Oc3cccc(C(F)(F)F)n3)cc2)nn([C@@H]2CCCN(C(=O)/C=C/CF)C2)c1N [Example 164, 5-amino-1-{(3R)-1-[(2E)-4-fluorobut-2-enoyl]piperidin-3-yl}-3-(4-{[6-(trifluoromethyl)pyridin-2-yl]oxy}phenyl)-1H-pyrazole-4-carboxamide] | 8.49 | pIC50 (human EGFR kinase domain): 5.47; pIC50 (Human B cells): 7.94
2 | C=CC(=O)N1CCC[C@H](n2nc(-c3ccc(Oc4ccccc4)cc3)c(C(N)=O)c2N)C1 [Example 126, 1-[(3S)-1-acryloylpiperidin-3-yl]-5-amino-3-(4-phenoxyphenyl)-1H-pyrazole-4-carboxamide] |  | pIC50 (human whole blood): 6.70; pIC50 (human EGFR kinase domain): 6.10; pIC50 (Human B cells; Homo sapiens): 7.68
3 | NC(=O)c1c(-c2ccc(Oc3ncc(Cl)cc3F)cc2)nn([C@@H]2CCCN(C(=O)/C=C/C(F)F)C2)c1N [Example 155, 5-amino-3-{4-[(5-chloro-3-fluoropyridin-2-yl)oxy]phenyl}-1-{(3R)-1-[(2E)-4,4-difluorobut-2-enoyl]piperidin-3-yl}-1H-pyrazole-4-carboxamide] | 9.15 | pIC50 (human EGFR kinase domain): 6.97; pIC50 (Human B cells): 8.70
4 | NC(=O)c1c(-c2ccc(Oc3ccc(Cl)cn3)cc2)nn([C@@H]2CCCN(C(=O)/C=C/C(F)F)C2)c1N [Example 159, 5-amino-3-{4-[(5-chloropyridin-2-yl)oxy]phenyl}-1-{(3R)-1-[(2E)-4,4-difluorobut-2-enoyl]piperidin-3-yl}-1H-pyrazole-4-carboxamide] | 8.89 | pIC50 (human EGFR kinase domain): 6.51; pIC50 (Human B cells): 8.55
5 | C=CC(=O)N1CCC[C@@H](n2nc(-c3ccc(Oc4ncc(Cl)cc4F)cc3)c(C(N)=O)c2N)C1 [Example 153, 1-[(3R)-1-acryloylpiperidin-3-yl]-5-amino-3-{4-[(5-chloro-3-fluoropyridin-2-yl)oxy]phenyl}-1H-pyrazole-4-carboxamide] | 9.32 | pIC50 (Human B cells): 9.25
6 | NC(=O)c1c(-c2ccc(Oc3ccc(F)cc3F)cc2)nn([C@@H]2CCCN(C(=O)/C=C/C(F)F)C2)c1N [Example 144, 5-amino-1-{(3R)-1-[(2E)-4,4-difluorobut-2-enoyl]piperidin-3-yl}-3-[4-(2,4-difluorophenoxy)phenyl]-1H-pyrazole-4-carboxamide] | 9.39 | pIC50 (Human B cells): 9.08
7 | NC(=O)c1c(-c2ccc(Oc3ncc(Cl)cc3F)cc2)nn([C@@H]2CCCN(C(=O)/C=C/CF)C2)c1N [Example 156, 5-amino-3-{4-[(5-chloro-3-fluoropyridin-2-yl)oxy]phenyl}-1-{(3R)-1-[(2E)-4-fluorobut-2-enoyl]piperidin-3-yl}-1H-pyrazole-4-carboxamide] | 8.85 | pIC50 (human EGFR kinase domain): 6.42; pIC50 (Human B cells): 8.60
8 | NC(=O)c1c(-c2ccc(Oc3cccc(C(F)(F)F)n3)cc2)nn([C@@H]2CCCN(C(=O)/C=C/C(F)F)C2)c1N [Example 163, 5-amino-1-{(3R)-1-[(2E)-4,4-difluorobut-2-enoyl]piperidin-3-yl}-3-(4-{[6-(trifluoromethyl)pyridin-2-yl]oxy}phenyl)-1H-pyrazole-4-carboxamide] | 8.89 | pIC50 (Human B cells): 9.04
9 | N#CN1CCCC(n2nc(-c3ccc(Cc4ccccc4)cc3)c(C(N)=O)c2N)C1 (stereo not shown) [Example 67] | 8.62 | 
10 | N#CN1CCCC(n2nc(-c3ccc(Oc4ccc(Cl)cc4)cc3)c(C(N)=O)c2N)C1 (stereo not shown) [Example 13, 5-amino-3-[4-(4-chlorophenoxy)phenyl]-1-(1-cyanopiperidin-3-yl)-1H-pyrazole-4-carboxamide] | 8.59 | 
11 | C=C(C)C(=O)N1CCC[C@@H](n2nc(-c3ccc(Oc4ccc(F)cc4F)cc3)c(C(N)=O)c2N)C1 [Example 139, 5-amino-3-[4-(2,4-difluorophenoxy)phenyl]-1-[(3R)-1-(2-methylacryloyl)piperidin-3-yl]-1H-pyrazole-4-carboxamide] | 6.61 | 
12 | N#CN1CCCC(n2nc(-c3ccc(Oc4ccc(F)cc4)cc3)c(C(N)=O)c2N)C1 (stereo not shown) [Example 41, 5-amino-1-(1-cyanopiperidin-3-yl)-3-[4-(4-fluorophenoxy)phenyl]-1H-pyrazole-4-carboxamide] | 8.20 | 
13 | N#CN1CCCC(n2nc(-c3ccc(Oc4cc(F)ccc4F)cc3)c(C(N)=O)c2N)C1 (stereo not shown) [Example 43, 5-amino-1-(1-cyanopiperidin-3-yl)-3-[4-(2,5-difluorophenoxy)phenyl]-1H-pyrazole-4-carboxamide] | 9.11 | 
14 | Cc1cccc(Cc2ccc(-c3nn([C@@H]4CCCN(C#N)C4)c(N)c3C(N)=O)cc2)c1 [Example 69, (R)-5-amino-1-(1-cyanopiperidin-3-yl)-3-(4-(3-methylbenzyl)phenyl)-1H-pyrazole-4-carboxamide] | 9.22 | 
15 | CC(C)c1ccc(Oc2cccc(-c3nn(C4CCCN(C#N)C4)c(N)c3C(N)=O)c2)cc1 (stereo not shown) [Example 100, 5-amino-1-(1-cyanopiperidin-3-yl)-3-[3-(4-isopropylphenoxy)phenyl]-1H-pyrazole-4-carboxamide] | 7.79 | 
16 | COc1ccccc1Oc1ccc(-c2nn(C3CCCN(C#N)C3)c(N)c2C(N)=O)cc1 (stereo not shown) [Example 65, 5-amino-1-(1-cyanopiperidin-3-yl)-3-[4-(2-methoxyphenoxy)phenyl]-1H-pyrazole-4-carboxamide] | 7.97 | 

Row | Compound | pIC50 [1] | other results
17 | N#CN1CCCC(n2nc(-c3ccc(Cc4ccc(F)cc4F)cc3)c(C(N)=O)c2N)C1 (single isomer, unassigned) [Example 81] | 8.24 | 
18 | C/C=C/C(=O)N1CCC[C@@H](n2nc(-c3ccc(Oc4ccc(F)cc4F)cc3)c(C(N)=O)c2N)C1 [Example 142, 5-amino-1-{(3R)-1-[(2E)-but-2-enoyl]piperidin-3-yl}-3-[4-(2,4-difluorophenoxy)phenyl]-1H-pyrazole-4-carboxamide] | 7.21 | 
19 | NC(=O)c1c(-c2ccc(Oc3ccc(Cl)cn3)cc2)nn(C2CCCN(C(=O)/C=C/CF)C2)c1N (stereo not shown) [Example 160] | 8.26 | pIC50 (human EGFR kinase domain): 6.05; pIC50 (Human B cells): 8.54
20 | N#CN1CCCC(n2nc(-c3ccc(C(O)c4ccccc4)cc3)c(C(N)=O)c2N)C1 (stereo not shown) [Example 88, 5-amino-1-(1-cyanopiperidin-3-yl)-3-{4-[hydroxy(phenyl)methyl]phenyl}-1H-pyrazole-4-carboxamide] | 8.24 | 
21 | Cc1ccc(Oc2ccc(-c3nn(C4CCCN(C#N)C4)c(N)c3C(N)=O)cc2)cc1C (stereo not shown) [Example 16, 5-amino-1-(1-cyanopiperidin-3-yl)-3-[4-(3,4-dimethylphenoxy)phenyl]-1H-pyrazole-4-carboxamide] | 8.89 | 
22 | N#CN1CCCC(n2nc(-c3ccc(Oc4ccc(F)cc4Cl)cc3)c(C(N)=O)c2N)C1 (single isomer, unassigned) [Example 37] | 9.10 | 
23 | Cc1ccc(Oc2ccc(-c3nn(C4CCCN(C#N)C4)c(N)c3C(N)=O)cc2)nc1 (stereo not shown) [Example 112, 5-amino-1-(1-cyanopiperidin-3-yl)-3-(4-((5-methylpyridin-2-yl)oxy)phenyl)-1H-pyrazole-4-carboxamide] | 7.78 | 
24 | N#CN1CCCC(n2nc(-c3ccc(Cc4cccc(F)c4)cc3)c(C(N)=O)c2N)C1 (stereo not shown) [Example 77, 5-amino-1-(1-cyanopiperidin-3-yl)-3-[4-(3-fluorobenzyl)phenyl]-1H-pyrazole-4-carboxamide] | 8.64 | 
25 | N#CN1CCCC(n2nc(-c3ccc(Cc4ccc(Cl)cc4)cc3)c(C(N)=O)c2N)C1 (stereo not shown) [Example 86, 5-amino-3-[4-(4-chlorobenzyl)phenyl]-(1-cyanopiperidin-3-yl)-1H-pyrazole-4-carboxamide] | 7.57 | 
26 | N#CN1CCCC(n2nc(-c3ccc(Oc4ccc(F)cc4)cc3Cl)c(C(N)=O)c2N)C1 (stereo not shown) [Example 120, 5-amino-3-[2-chloro-4-(4-fluorophenoxy)phenyl]-1-(1-cyanopiperidin-3-yl)-1H-pyrazole-4-carboxamide] | 6.85 | 
27 | Cc1ccc(Oc2ccc(-c3nn(C4CCCN(C#N)C4)c(N)c3C(N)=O)cc2)nc1 (single isomer, unassigned) [Example 114] | 8.00 | 
28 | N#CN1CCCC(n2nc(-c3cccc(Oc4ccccc4)c3)c(C(N)=O)c2N)C1 (stereo not shown) [Example 89, 5-amino-1-(1-cyanopiperidin-3-yl)-3-(3-phenoxyphenyl)-1H-pyrazole-4-carboxamide] | 8.11 | 
29 | Cc1cc(Oc2cccc(-c3nn(C4CCCN(C#N)C4)c(N)c3C(N)=O)c2)ccc1C(C)C (stereo not shown) [Example 101, 5-amino-1-(1-cyanopiperidin-3-yl)-3-[3-(4-isopropyl-3-methylphenoxy)phenyl]-1H-pyrazole-4-carboxamide] | 8.28 | 
30 | Cc1cccc(Cc2ccc(-c3nn([C@H]4CCCN(C#N)C4)c(N)c3C(N)=O)cc2)c1 [Example 70, (S)-5-amino-1-(1-cyanopiperidin-3-yl)-3-(4-(3-methylbenzyl)phenyl)-1H-pyrazole-4-carboxamide] | 7.66 | 
31 | NC(=O)c1c(-c2ccc(Oc3ccc(F)cc3F)cc2)nn([C@@H]2CCCN(C(=O)/C=C/CCO)C2)c1N [Example 141, 5-amino-3-[4-(2,4-difluorophenoxy)phenyl]-1-{(3R)-1-[(2E)-5-hydroxypent-2-enoyl]piperidin-3-yl}-1H-pyrazole-4-carboxamide] | 7.24 | 
